Test results: patent US10253002B2, “Compounds and methods of treating infections” (Neoculi Pty Ltd., priority 2013, dated 2019)
In brackets after ≈: the same amount, converted by molar mass. Read-outs that look alike come from different tables or passages of the source.

System: MRSA
Experiment: Broth microdilution MIC, Example 7 (NCL812 and analogues)
Format: cell-based, Staphylococcus aureus
Conditions: Staphylococcus aureus, MRSA, read-out: MIC
How it was run: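 Duplicates per isolate, repeated a third time if >one two-fold dilution apart. MIC50, MIC20 and range calculated per bacterial group.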

## CC1(C)S[C@@H]2[C@H](NC(=O)[C@H](N)c3ccccc3)C(=O)N2[C@H]1C(=O)O [Ampicillin]
MRSA 610, Phase II, 1st
  MIC: 32 µg/mL (≈ 91.6 µM)
MRSA 610, Phase II, 2nd
  MIC: 32 µg/mL (≈ 91.6 µM)
MRSA 616, Phase I, 1st
  MIC: 64 µg/mL (≈ 183 µM)
MRSA 616, Phase I, 2nd
  MIC: 64 µg/mL (≈ 183 µM)
MRSA 616, Phase II, 1st
  MIC: 64 µg/mL (≈ 183 µM)
MRSA 616, Phase II, 2nd
  MIC: 64 µg/mL (≈ 183 µM)
MRSA 622, Phase I, 1st
  MIC: 64 µg/mL (≈ 183 µM)
MRSA 622, Phase I, 2nd
  MIC: 64 µg/mL (≈ 183 µM)
MRSA 622, Phase II, 1st
  MIC: 32 µg/mL (≈ 91.6 µM)
MRSA 622, Phase II, 2nd
  MIC: 32 µg/mL (≈ 91.6 µM)
MRSA 698, Phase I, 1st
  MIC: 64 µg/mL (≈ 183 µM)
MRSA 698, Phase I, 2nd
  MIC: 64 µg/mL (≈ 183 µM)
MRSA 698, Phase II, 1st
  MIC: 8 µg/mL (≈ 22.9 µM)
MRSA 698, Phase II, 2nd
  MIC: 8 µg/mL (≈ 22.9 µM)
MRSA 713, Phase I, 1st
  MIC: > 128 µg/mL
MRSA 713, Phase I, 2nd
  MIC: > 128 µg/mL
MRSA 718, Phase I, 1st
  MIC: > 128 µg/mL
MRSA 718, Phase I, 2nd
  MIC: > 128 µg/mL
MRSA 718, Phase II, 1st
  MIC: 64 µg/mL (≈ 183 µM)
MRSA 718, Phase II, 2nd
  MIC: 64 µg/mL (≈ 183 µM)
MRSA 728, Phase I, 1st
  MIC: 64 µg/mL (≈ 183 µM)
MRSA 728, Phase I, 2nd
  MIC: 64 µg/mL (≈ 183 µM)
MRSA 728, Phase II, 1st
  MIC: 32 µg/mL (≈ 91.6 µM)
MRSA 728, Phase II, 2nd
  MIC: 32 µg/mL (≈ 91.6 µM)
MRSA 734, Phase I, 1st
  MIC: > 128 µg/mL
MRSA 734, Phase I, 2nd
  MIC: > 128 µg/mL
MRSA 734, Phase II, 1st
  MIC: 64 µg/mL (≈ 183 µM)
MRSA 734, Phase II, 2nd
  MIC: 64 µg/mL (≈ 183 µM)
MRSA 741, Phase I, 1st
  MIC: 8 µg/mL (≈ 22.9 µM)
MRSA 741, Phase I, 2nd
  MIC: 8 µg/mL (≈ 22.9 µM)
MRSA 741, Phase II, 1st
  MIC: 4 µg/mL (≈ 11.4 µM)
MRSA 741, Phase II, 2nd
  MIC: 4 µg/mL (≈ 11.4 µM)
MRSA 747, Phase I, 1st
  MIC: > 128 µg/mL
MRSA 747, Phase I, 2nd
  MIC: > 128 µg/mL
MRSA 747, Phase II, 1st
  MIC: 64 µg/mL (≈ 183 µM)
MRSA 747, Phase II, 2nd
  MIC: 64 µg/mL (≈ 183 µM)
MRSA 773, Phase I, 1st
  MIC: 64 µg/mL (≈ 183 µM)
MRSA 773, Phase I, 2nd
  MIC: 64 µg/mL (≈ 183 µM)
MRSA 773, Phase II, 1st
  MIC: 64 µg/mL (≈ 183 µM)
MRSA 773, Phase II, 2nd
  MIC: 64 µg/mL (≈ 183 µM)
MRSA 778, Phase I, 1st
  MIC: > 128 µg/mL
MRSA 778, Phase I, 2nd
  MIC: > 128 µg/mL
MRSA 786, Phase I, 1st
  MIC: 32 µg/mL (≈ 91.6 µM)
MRSA 786, Phase I, 2nd
  MIC: 32 µg/mL (≈ 91.6 µM)
MRSA 786, Phase II, 1st
  MIC: 32 µg/mL (≈ 91.6 µM)
MRSA 786, Phase II, 2nd
  MIC: 32 µg/mL (≈ 91.6 µM)
MRSA 787, Phase I, 1st
  MIC: > 128 µg/mL
MRSA 787, Phase I, 2nd
  MIC: > 128 µg/mL
MRSA 787, Phase II, 1st
  MIC: 64 µg/mL (≈ 183 µM)
MRSA 787, Phase II, 2nd
  MIC: 64 µg/mL (≈ 183 µM)
MRSA 815, Phase I, 1st
  MIC: 64 µg/mL (≈ 183 µM)
MRSA 815, Phase I, 2nd
  MIC: 64 µg/mL (≈ 183 µM)
MRSA 815, Phase II, 1st
  MIC: 32 µg/mL (≈ 91.6 µM)
MRSA 815, Phase II, 2nd
  MIC: 32 µg/mL (≈ 91.6 µM)
MRSA 823, Phase I, 1st
  MIC: > 128 µg/mL
MRSA 823, Phase I, 2nd
  MIC: > 128 µg/mL
MRSA 844, Phase II, 1st
  MIC: 64 µg/mL (≈ 183 µM)
MRSA 844, Phase II, 2nd
  MIC: 32 µg/mL (≈ 91.6 µM)
